Several values for one entry are separate records, joined by “and”; a condition that tells them apart may be missing. Identical values can stand only once.
What was measured:
[1] = test system: thoracic aorta of the rat; test: Action easing KCl contraction in rat arteries; conditions: rat thoracic aorta ring, 50 mM KCl, compound 10^-6 M; read-out: Inhibitory rate of hyperpotassium contraction at 10^-6 M
Method: Action Easing KCl Contraction in Rat Arteries
The specimen was stabilized for approximately 60 minutes, then a potassium chloride solution was added to the Magnus tube to give a final concentration of 50 mM. The positive control compound or the compound of the present invention was cumulatively added to become 1×10^-6 M when the contraction reaction occurring at that time reached equilibrium. The contraction force was recorded by an FD-pickup (Nihon Koden) via a polygraph (Nihon Koden).

[2] = test system: VCR resistant murine leukemia (P388/VCR) cells; test: In vivo overcoming of resistance in VCR resistant murine leukemia (P388/VCR) bearing mice, etoposide with compound 20 mg/kg; set-up: species or system CDF1 female mice; conditions: for Average days of survival / Rate of prolongation of life T/C: VP-16 3 mg/kg + compound 20 mg/kg
Method: In Vivo Test of Action Suppressing Proliferation of Cancer Cells by Combined Administration of Anti-cancer Drug Etoposide
Effect of Overcoming Resistance to an Anti-cancer Drug for VCR Resistant Murine Leukemia Cell Bearing Mice
(§1) 1.2×10^5 VCR resistant murine leukemia (P388/VCR) cells were transplanted intravenously into groups of 5-6 CDF1 female mice, then the compound of the present invention (20 mg/kg) and Etoposide (VP-16) (3 mg/kg) were administered intravenously once per day for 5 days, after dissolving them in a physiological salt solution containing a small amount of hydrochloric acid. The observation was started from the next day. The number of survival days were found and the life prolonging rate (T/C) with respect to the controls was found. The effect in overcoming resistance to an anti-cancer drug (T/V) was found by the following formula.
(§2) Effect of overcoming resistance to the anti-cancer drug (T/V) %
(§3) =[(Rate of prolongation of life using VP-16 and the present compound (T/C))/(Rate of prolongation of life using VP-16 alone (T/C))]×100

[3] = test system: VCR resistant murine leukemia (P388/VCR) cells; test: In vivo overcoming of resistance in VCR resistant murine leukemia (P388/VCR) bearing mice, etoposide with compound 10 mg/kg; set-up: species or system CDF1 female mice; conditions: for Average days of survival / Effect of overcoming resistance T/V / Rate of prolongation of life T/C: VP-16 3 mg/kg + compound 10 mg/kg; for Effect of overcoming resistance T/V: vs VP-16 alone
Method: as §1, §2, §3
In Vivo Test of Action Suppressing Proliferation of Cancer Cells by Combined Administration of Anti-Cancer Drug Etoposide
The Test Example 3 was repeated using 10 mg/kg administration of the present compound and the effects of overcoming resistance to the anti-cancer drug were determined from the average days of survival.

[4] = i.v. once per day for 5 days, vs control
[5] = VP-16 alone 3 mg/kg, reference = 100

Structure (SMILES)	Average days of survival ([2]; i.v. once per day for 5 days)	Rate of prolongation of life T/C [2, 4]	other results
COc1ccc(CCN(C)CCCC(C#N)(c2ccc(OC)c(OC)c2)C(C)C)cc1OC (centres unmarked) [Verapamil, reference compound]	–	–	inhibition at 1 µM [1]: 42.3%
CCOC(=O)C1=C(c2ccc(-n3c(C)nc4cnccc43)cc2)NC(C)=C(C(=O)OCC#Cc2cccnc2)C1C=C1c2ccccc2C2C(c3ccccc31)C2(F)F (centres unmarked) [Compound 67, 4-(1,1-Difluoro-1,1a,6,10b-tetrahydrodibenzo[a,e]cyclopropa[c]cyclohepten-6-ylidenemethyl)-6-methyl-2-[4-(2-methylimidazo[4,5-c]pyridin-1-yl)phenyl]-1,4-dihydropyridin-3,5-dicarboxylate 3-ethylester 5-[3-(3-pyridyl)-2-propynyl]ester]	14.3 days	139%	–
CCOC(=O)C1=C(c2ccc(-n3c(C)nc4cnccc43)cc2)NC(C)=C(C(=O)OCC#Cc2cncc3ccccc23)C1/C=C/c1ccccc1 (centres unmarked) [Compound 20]	14.7 days	144%	–
CCOC(=O)C1=C(c2ccc(-n3c(C)nc4cnccc43)cc2)NC(C)=C(C(=O)OCC#Cc2cnc3ccccc3c2)C1CCc1ccccc1 (centres unmarked) [Compound 18, 6-Methyl-2-[4-(2-methylimidazo[4,5-c]pyridin-1-yl)phenyl]-4-(2-phenylethyl)-1,4-dihydropyridin-3,5-dicarboxylate 3-ethylester 5-[3-(3-quinolyl)-2-propynyl]ester]	16.0 days	157%	–
COc1cc([C@@H]2c3cc4c(cc3[C@@H](O[C@@H]3O[C@@H]5CO[C@@H](C)O[C@H]5[C@H](O)[C@H]3O)[C@H]3COC(=O)[C@H]23)OCO4)cc(OC)c1O [VP-16, Etoposide, reference compound]	–	–	Average days of survival (VP-16 alone) ([3]; VP-16 alone 3 mg/kg): 10.6 days; Effect of overcoming resistance T/V (VP-16 alone) [3, 5]: 100%; Rate of prolongation of life T/C (VP-16 alone) ([3]; VP-16 alone 3 mg/kg, vs control): 102%; Average days of survival (VP-16 alone) ([2]; VP-16 alone 3 mg/kg, i.v. once per day for 5 days): 9.5 days and 11.0 days and 10.5 days; Rate of prolongation of life T/C (VP-16 alone) ([2]; VP-16 alone 3 mg/kg, i.v. once per day for 5 days, vs control): 103% and 108% and 102%; Effect of overcoming resistance T/V (VP-16 alone) [2, 5]: 100%
CCOC(=O)C1=C(c2ccc(-n3c(C)nc4cnccc43)cc2)NC(C)=C(C(=O)OCC#Cc2cccnc2)C1CCc1ccccc1Cl (centres unmarked) [Compound 11, 4-[2-(2-Chlorophenyl)ethyl]-6-methyl-2-[4-(2-methylimidazo[4,5-c]pyridin-1-yl)phenyl]-1,4-dihydropyridin-3 ,5-dicarboxylate 3-ethylester 5-[3-(3-pyridyl)-2-propynyl]ester]	15.8 days	155%	–
CCOC(=O)C1=C(c2ccc(-n3c(C)nc4cnccc43)cc2)NC(C)=C(C(=O)OCC#Cc2cccnc2)C1CC1c2ccccc2C2C(c3ccccc31)C2(F)F (centres unmarked) [Compound 66, 4-(1,1-Difluoro-1,1a,6, 10b-tetrahydrodibenzoa,[a,e]cyclopropa[c]cyclohepten-6-ylmethyl)-6-methyl-2-[4-(2-methylimidazo[4,5-c]pyridin-1-yl)phenyl]-1,4-dihydropyridin-3,5-dicarboxylate 3-ethylester 5-[3-(3-pyridyl)-2-propynyl]ester]	14.5 days	141%	–
CCOC(=O)C1=C(c2ccc(-n3c(C(C)C)nc4cnccc43)cc2)NC(C)=C(C(=O)OCC#Cc2cccnc2)C1CC(c1ccccc1)c1ccccc1 (centres unmarked) [Compound 71, 4-(2,2-Diphenylethyl)-2-[4-(2-isopropylimidazo[4,5-c]pyridin-1-yl)phenyl]-6-methyl-1,4-dihydropyridin-3,5-dicarboxylate 3-ethylester 5-[3-(3-pyridyl)-2-propynyl]ester]	–	–	Average days of survival [3]: 17.4 days; Effect of overcoming resistance T/V [3]: 164%; Rate of prolongation of life T/C ([3]; vs control): 167%
CCOC(=O)C1=C(c2ccc(-n3c(C)nc4cnccc43)cc2)NC(C)=C(C(=O)OCC#Cc2cccnc2)C1C(C)c1ccccc1 (stereo not drawn) [Compound 7, 6-Methyl-4-(α-methylbenzyl)-2-[4-(2-methylimidazo[4,5-c]pyridin-1-yl)phenyl]-1,4-dihydropyridin-3,5-dicarboxylate 3-ethylester 5-[3-(3-pyridyl)-2-propynyl]ester]	13.4 days	146%	–
CCOC(=O)C1=C(c2ccc(-n3c(C)nc4cnccc43)cc2)NC(C)=C(C(=O)OCC#Cc2cccnc2)C1CC(c1ccccc1)c1ccccc1 (centres unmarked) [Compound 60]	16.3 days	158%	–
CCOC(=O)C1=C(c2ccc(-n3c(C)nc4cnccc43)cc2)NC(C)=C(C(=O)OC(C)C#Cc2cccnc2)C1CCc1ccccc1 (centres unmarked) [Compound 23, 6-Methyl-2-[4-(2-methylimidazo[4,5-c]pyridin-1-yl)phenyl]-4-(2-phenylethyl)-1,4-dihydropyridin-3,5-dicarboxylate 3-ethylester 5-[1-methyl-3-(3-pyridyl)-2-propynyl]ester]	15.8 days	172%	Average days of survival [3]: 13.0 days; Effect of overcoming resistance T/V [3]: 123%; Rate of prolongation of life T/C ([3]; vs control): 125%
CCOC(=O)C1=C(c2ccc(-n3c(C)nc4cnccc43)cc2)NC(C)=C(C(=O)OCC#Cc2cccnc2)C1CC(c1ccc(F)cc1)c1ccc(F)cc1 (centres unmarked) [Compound 78]	–	–	Average days of survival [3]: 14.2 days; Effect of overcoming resistance T/V [3]: 134%; Rate of prolongation of life T/C ([3]; vs control): 137%
CCOC(=O)C1=C(c2ccc(-n3c(C)nc4cnccc43)cc2)NC(C)=C(C(=O)OCC#Cc2cccnc2)C1CCc1ccccc1OC (centres unmarked) [Compound 13, 4-[2-(2-methoxyphenyl)ethyl]-6-methyl-2-[4-(2-methylimidazo[4,5-c]pyridin-1-yl)phenyl]-1,4-dihydropyridin-3,5-dicarboxylate 3-ethylester 5-[3-(3-pyridyl)-2-propynyly]ester]	15.7 days	154%	–
CCOC(=O)C1=C(c2ccc(-n3c(C)nc4cnccc43)cc2)NC(C)=C(C(=O)OCC#Cc2cccnc2)C1/C=C/c1ccccc1Cl (centres unmarked) [Compound 12, 4-[(E)-2-(2-chlorophenyl)ethenyl]-6-methyl-2-[4-(2-methylimidazo[4,5-c]pyridin-1-yl)phenyl]-1,4-dihydropyridin-3,5-dicarboxylate 3-ethylester 5-[3-(3pyridyl)-2-propynyl]ester]	16.8 days	165%	–
CCOC(=O)C1=C(c2ccc(-n3c(C)nc4cnccc43)cc2)NC(C)=C(C(=O)OCC#Cc2cnc3ccccc3c2)C1/C=C/c1ccccc1 (centres unmarked) [Compound 19, 6-Methyl-2-[4-(2-methylimidazo[4,5-c]pyridin-1-yl)phenyl]-4-[(E)-2-(2-phenyl)ethenyl]-1,4-dihydropyridin-3,5-dicarboxylate 3-ethylester 5-[(3-quonolyl)-2-propynyl]ester]	16.0 days	157%	–
CCOC(=O)C1=C(c2ccc(-n3c(C)nc4cnccc43)cc2)NC(C)=C(C(=O)OCC#Cc2cccnc2)C1/C=C/c1ccccc1 (centres unmarked) [Compound 10, 6-Methyl-2-[4-(2-methylimidazo[4,5-c]pyridin-1-yl)phenyl]-4-[(E)-2-phenylethenyl]-1,4-dihydropyridin-3,5-dicarboxylate 3-ethylester 5-[3-(3-pyridyl)-2-propynyl]ester]	17.0 days	185%	–
CCOC(=O)C1=C(c2ccc(-n3c(C)nc4cnccc43)cc2)NC(C)=C(C(=O)OCCC#Cc2cccnc2)C1CCc1ccccc1 (centres unmarked) [Compound 47, 6-Methyl-2-[4-(2-methylimidazo[4,5-c]pyridin-1-yl)phenyl]-4-(2-phenylethyl)-1,4-dihydropyridin-3,5-dicarboxylate 3-ethylester 5-[4-(3-pyridyl)-3-butynyl]ester]	15.2 days	148%	–
CCOC(=O)C1=C(c2ccc(-n3c(C)nc4cnccc43)cc2)NC(C)=C(C(=O)OCC#Cc2cccnc2)C1C1CCCCC1 (centres unmarked) [Compound 4, 4-Cyclohexyl-6-methyl-2-[4-(2-methylimidazo[4,5-c]pyridin-1-yl)phenyl]-1,4-dihydropyridin-3,5-dicarboxylate 3-ethylester 5-[3-(3-pyridyl)-2-propynyl]ester]	14.8 days	161%	–
